Tests used:
[1] = test system: T47D (PI3Kα-H1047R) cell line; experiment: HTRF phospho-AKT(S473) cell assay in T47D cells; type: cell-based, human
Method in brief: (§1)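 pAKT(S473) in lysates read by HTRF after a 2 h, 37 °C compound exposure (12-point 1:3 series, max 0.5% DMSO). SKBR3 (wild type, top 10 μM) received 70 ng/ml PDGF-BB during the final 15 min; T47D (H1047R, top 5 μM) was unstimulated. IC50 values derived from the dose-response.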

[2] = test system: SKBR3 (PI3Kα-Wild Type) cell line; experiment: HTRF phospho-AKT(S473) cell assay in SKBR3 cells; type: cell-based, human
Method in brief: as §1

[3] = Homo sapiens; T47D (PI3Kα-H1047R) cells, HTRF phospho-AKT(S473), 2 hours compound incubation
[4] = Homo sapiens, SK-BR-3; SKBR3 (PI3Kα-Wild Type) cells, HTRF phospho-AKT(S473), 2 hours compound incubation, PDGF-BB stimulated
[5] = Homo sapiens; HTRF phospho-AKT(S473), T47D (PI3Kα-H1047R) cells, 2 hours compound incubation
[6] = Homo sapiens, SK-BR-3; HTRF phospho-AKT(S473), SKBR3 (PI3Kα-Wild Type) cells, 2 hours compound incubation, PDGF-BB stimulated

IC50 [1, 3] [nM] | IC50 [2, 4] [nM] | IC50 [1, 5] [nM] | IC50 [2, 6] [nM] | Compound
< 250 | 1000 to 5000 |  |  | Cc1cc([C@@H](C)Nc2ccc(Cl)nc2C(=O)NS(=O)(=O)C2COC2)c2nc(N3Cc4ccc(F)cc4C3)n(C)c(=O)c2c1 [Compound 173, (R)-6-chloro-3-((1-(2-(5-fluoroisoindolin-2-yl)-3,6-dimethyl-4-oxo-3,4-dihydroquinazolin-8-yl)ethyl)amino)-N-(oxetan-3-ylsulfonyl)picolinamide]
< 250 | 1000 to 5000 |  |  | Cc1cc([C@@H](C)Nc2ccc(Cl)nc2C(=O)NS(C)(=O)=O)c2nc(N3CCC(n4ccc(N(C)C)n4)CC3)n(C)c(=O)c2c1 [Compound 310, (R)-6-chloro-3-((1-(2-(4-(3-(dimethylamino)-1H-pyrazol-1-yl)piperidin-1-yl)-3,6-dimethyl-4-oxo-3,4-dihydroquinazolin-8-yl)ethyl)amino)-N-(methylsulfonyl) picolinamide]
< 250 | 1000 to 5000 |  |  | Cc1cc([C@@H](C)Nc2ccc(Cl)nc2C(=O)NS(C)(=O)=O)c2nc(N3CCc4cn(CC(F)(F)F)nc4C3)n(C)c(=O)c2c1 [Compound 214, (R)-6-chloro-3-((1-(3,6-dimethyl-4-oxo-2-(2-(2,2,2-trifluoroethyl)-2,4,5,7-tetrahydro-6H-pyrazolo[3,4-c]pyridin-6-yl)-3,4-dihydroquinazolin-8-yl)ethyl)amino)-N-(methylsulfonyl) picolinamide]
 |  | < 250 | 1000 to 5000 | C[C@@H](Nc1ccc(Cl)nc1C(=O)NS(C)(=O)=O)c1cc(F)cc2c(=O)n(C)c(N3CC[C@@H](Oc4cnn(C)c4)C3)nc12 [Compound 560, 6-chloro-3-(((R)-1-(6-fluoro-3-methyl-2-((R)-3-((1-methyl-1H-pyrazol-4-yl)oxy)pyrrolidin-1-yl)-4-oxo-3,4-dihydroquinazolin-8-yl)ethyl)amino)-N-(methylsulfonyl) picolinamide]
< 250 | 1000 to 5000 |  |  | Cc1cc([C@@H](C)Nc2ccc(Cl)nc2C(=O)NS(C)(=O)=O)c2nc(N3CCN(c4ccc(C#N)cn4)[C@H](C)C3)n(C)c(=O)c2c1 [Compound 200, 6-chloro-3-(((R)-1-(2-((R)-4-(5-cyanopyridin-2-yl)-3-methylpiperazin-1-yl)-3,6-dimethyl-4-oxo-3,4-dihydroquinazolin-8-yl)ethyl)amino)-N-(methylsulfonyl) picolinamide]
 |  | < 250 | 1000 to 5000 | Cc1cc([C@@H](C)Nc2ccc(Cl)nc2C(=O)NS(C)(=O)=O)c2nc(-c3ccc4nn(C5COC5)cc4c3)n(C)c(=O)c2c1 [Compound 792, (R)-6-chloro-3-((1-(3,6-dimethyl-2-(2-(oxetan-3-yl)-2H-indazol-5-yl)-4-oxo-3,4-dihydroquinazolin-8-yl)ethyl)amino)-N-(methylsulfonyl) picolinamide]
 |  | 250 to 500 | ≥ 5000 | COc1cnc([C@H]2[C@@H]3CN(c4nc5c([C@@H](C)Nc6ccc(Cl)nc6C(=O)NS(C)(=O)=O)cc(C)cc5c(=O)n4C)C[C@@H]32)cn1 [Compound 641, 6-chloro-3-(((R)-1-(2-((1R,5S,6R)-6-(5-methoxypyrazin-2-yl)-3-azabicyclo[3.1.0]hexan-3-yl)-3,6-dimethyl-4-oxo-3,4-dihydroquinazolin-8-yl)ethyl)amino)-N-(methylsulfonyl) picolinamide]
< 250 | 1000 to 5000 |  |  | Cc1cc([C@@H](C)Nc2ccc(Cl)nc2C(=O)NS(C)(=O)=O)c2nc(N3Cc4cccc(-c5ccnn5C)c4C3)n(C)c(=O)c2c1 [Compound 274, (R)-6-chloro-3-((1-(3,6-dimethyl-2-(4-(1-methyl-1H-pyrazol-5-yl)isoindolin-2-yl)-4-oxo-3,4-dihydroquinazolin-8-yl)ethyl)amino)-N-(methylsulfonyl) picolinamide]
 |  | < 250 | 1000 to 5000 | COc1nn(C)cc1[C@H]1[C@@H]2CN(c3nc4c([C@@H](C)Nc5ccc(Cl)nc5C(=O)NS(C)(=O)=O)cc(C)cc4c(=O)n3C)C[C@@H]21 [Compound 440, 6-chloro-3-(((R)-1-(2-((1R,5S,6S)-6-(3-methoxy-1-methyl-1H-pyrazol-4-yl)-3-azabicyclo[3.1.0]hexan-3-yl)-3,6-dimethyl-4-oxo-3,4-dihydroquinazolin-8-yl)ethyl)amino)-N-(methylsulfonyl) picolinamide]
250 to 500 | 1000 to 5000 |  |  | COc1cn(C)nc1C1CCN(c2nc3c([C@@H](C)Nc4ccc(Cl)nc4C(=O)NS(C)(=O)=O)cc(C)cc3c(=O)n2C)CC1 [Compound 316, (R)-6-chloro-3-((1-(2-(4-(4-methoxy-1-methyl-1H-pyrazol-3-yl)piperidin-1-yl)-3,6-dimethyl-4-oxo-3,4-dihydroquinazolin-8-yl)ethyl)amino)-N-(methylsulfonyl) picolinamide]
 |  | 250 to 500 | ≥ 5000 | Cc1cc([C@@H](C)Nc2ccc(Cl)nc2C(=O)NS(C)(=O)=O)c2nc(N3CC[C@H](Nc4ncc(F)cn4)C3)n(C)c(=O)c2c1 [Compound 737, 6-chloro-3-(((R)-1-(2-((S)-3-((5-fluoropyrimidin-2-yl)amino)pyrrolidin-1-yl)-3,6-dimethyl-4-oxo-3,4-dihydroquinazolin-8-yl)ethyl)amino)-N-(methylsulfonyl) picolinamide]
< 250 | 1000 to 5000 |  |  | Cc1cc([C@@H](C)Nc2ccc(Cl)nc2C(=O)NS(C)(=O)=O)c2nc(N3CCC(n4cc(C)cn4)CC3)n(C)c(=O)c2c1 [Compound 197, (R)-6-chloro-3-((1-(3,6-dimethyl-2-(4-(4-methyl-1H-pyrazol-1-yl)piperidin-1-yl)-4-oxo-3,4-dihydroquinazolin-8-yl)ethyl)amino)-N-(methylsulfonyl) picolinamide]
< 250 | 1000 to 5000 |  |  | CC(=O)N1CCN(c2ncc(-c3nc4c([C@@H](C)Nc5ccc(Cl)nc5C(=O)NS(C)(=O)=O)cc(C)cc4c(=O)n3C)cc2F)CC1 [Compound 259, (R)-3-((1-(2-(6-(4-acetylpiperazin-1-yl)-5-fluoropyridin-3-yl)-3,6-dimethyl-4-oxo-3,4-dihydroquinazolin-8-yl)ethyl)amino)-6-chloro-N-(methylsulfonyl) picolinamide]
< 250 | 1000 to 5000 |  |  | C[C@@H](Nc1ccc(Cl)nc1C(=O)NS(C)(=O)=O)c1cc(F)cc2c(=O)n(C)c(N3C[C@@H]4[C@H](C3)[C@H]4c3cnn(C)c3)nc12 [Compound 411, 6-chloro-3-(((R)-1-(6-fluoro-3-methyl-2-((1R,5S,6S)-6-(1-methyl-1H-pyrazol-4-yl)-3-azabicyclo[3.1.0]hexan-3-yl)-4-oxo-3,4-dihydroquinazolin-8-yl)ethyl)amino)-N-(methylsulfonyl) picolinamide]
< 250 | 1000 to 5000 |  |  | Cc1cc([C@@H](C)Nc2ccc(Cl)nc2C(=O)NS(C)(=O)=O)c2nc(N3C[C@@H]4[C@H](C3)[C@H]4c3cncc(C)n3)n(C)c(=O)c2c1 [Compound 418, 6-chloro-3-(((R)-1-(3,6-dimethyl-2-((1R,5S,6R)-6-(6-methylpyrazin-2-yl)-3-azabicyclo[3.1.0]hexan-3-yl)-4-oxo-3,4-dihydroquinazolin-8-yl)ethyl)amino)-N-(methylsulfonyl) picolinamide]
< 250 | 1000 to 5000 |  |  | Cc1cc([C@@H](C)Nc2ccc(Cl)nc2C(=O)NS(C)(=O)=O)c2nc(N3CCC(c4cnc(C)cn4)CC3)n(C)c(=O)c2c1 [Compound 272, (R)-6-chloro-3-((1-(3,6-dimethyl-2-(4-(5-methylpyrazin-2-yl)piperidin-1-yl)-4-oxo-3,4-dihydroquinazolin-8-yl)ethyl)amino)-N-(methylsulfonyl) picolinamide]
 |  | 250 to 500 | 1000 to 5000 | Cc1cc([C@@H](C)Nc2ccc(Cl)nc2C(=O)NS(C)(=O)=O)c2nc(N3CCC(c4nc(C)nn4C(F)F)CC3)n(C)c(=O)c2c1 [Compound 724, (R)-6-chloro-3-((1-(2-(4-(1-(difluoromethyl)-3-methyl-1H-1,2,4-triazol-5-yl)piperidin-1-yl)-3,6-dimethyl-4-oxo-3,4-dihydroquinazolin-8-yl)ethyl)amino)-N-(methylsulfonyl) picolinamide]
 |  | 250 to 500 | ≥ 5000 | Cc1cc([C@@H](C)Nc2ccc(Cl)nc2C(=O)NS(C)(=O)=O)c2nc(N3CCC(c4cccc5c4cnn5C)CC3)n(C)c(=O)c2c1 [Compound 678, (R)-6-chloro-3-((1-(3,6-dimethyl-2-(4-(1-methyl-1H-indazol-4-yl)piperidin-1-yl)-4-oxo-3,4-dihydroquinazolin-8-yl)ethyl)amino)-N-(methylsulfonyl) picolinamide]
< 250 | 1000 to 5000 |  |  | Cc1cc([C@@H](C)Nc2ccc(Cl)nc2C(=O)NS(C)(=O)=O)c2nc(N3Cc4cc(F)cnc4C3)n(C)c(=O)c2c1 [Compound 225, (R)-6-chloro-3-((1-(2-(3-fluoro-5,7-dihydro-6H-pyrrolo[3,4-b]pyridin-6-yl)-3,6-dimethyl-4-oxo-3,4-dihydroquinazolin-8-yl)ethyl)amino)-N-(methylsulfonyl) picolinamide]
 |  | 500 to 1000 | 1000 to 5000 | Cc1cc([C@@H](C)Nc2ccc(Cl)nc2C(=O)NS(C)(=O)=O)c2nc(-c3ccc4cn[nH]c4c3)n(C)c(=O)c2c1 [Compound 834, (R)-3-((1-(2-(1H-indazol-6-yl)-3,6-dimethyl-4-oxo-3,4-dihydroquinazolin-8-yl)ethyl)amino)-6-chloro-N-(methylsulfonyl) picolinamide]
